According to patent US4341790A, “Pyrrolidinylalkylcarboxylic acid amide derivatives, their preparation and pharmaceutical compositions containing them” (A. Nattermann & Cie. GmbH, priority 1979, dated 1982):
Entries after “also recorded” stand apart in the source; their conditions may differ. Where two headings read alike, the source gives them in different places.

Tests used:
male mice = type: in vivo
Text: (§1) 2. Prolongation of the cerebral survival time in the case of hypoxaemia caused by sub-atmospheric pressure.
(§2) This neuropathological behaviour is induced in male mice by a progressive reduction of the pressure to 26.66 kPa in an observation chamber and is used as an indicator of the cerebral hypoxia period. It ends in the death of the experimental animal.

mice = assay: LD50 / toxicity and toleration; type: in vivo; conditions: in words
[1] = LD50 / toxicity and toleration; type: in vivo, mice; conditions: mouse, in vivo, mice
[2] = Tranquillising properties; type: in vivo; conditions: in words
thrombocytes = assay: Inhibition of aggregation of thrombocytes; conditions: in words
[3] = Cerebral protection / vaso-active and metabolism-regulating properties (overall); type: in vivo, mice; conditions: in words
Experimental: The following methods have been used to investigate the pharmacodynamic properties of the compounds according to the invention:
1. Prolongation of cerebral survival time under hypoxaemia caused by NaNO2.
Starting from the results of Gibson and Blass (J. Neurochemistry 27, 1976), a cerebral hypoxia is produced in male mice by means of NaNO2 (225 mg/kg, subcutaneous). The cerebral hypoxia period is marked by a characteristic spasmodic behaviour and ends in the death of the experimental animals.
as §1, §2
3. Protection against amnesia induced by electric shock.
Starting from the results of Taber and Banuazizi (Psychopharmakologia 9, 1966), male mice are taught not to enter a certain compartment of the cage in order to avoid an electric shock. The response is extinguished by means of an electric shock administered via head electrodes (electric shock amnesia).

C(=C\c1ccccc1)/CN1CCN(C(c2ccccc2)c2ccccc2)CC1 [Cinnarizine, cinnarizine]
Sub-atmospheric pressure hypoxaemia (male mice; po): -

Cc1cccc(C)c1NC(=O)CN1CCCC1=O [Example 6, 2-Oxo-1-pyrrolidinylacetic acid, 2,6-dimethylanilide]
toleration (mice): well tolerated; also recorded: good toleration | toxicity (mice): very low toxicity | LD50 ([1]; iv, administered intravenously): 421 mg/kg | LD50 ([1]; po, administered orally): 1770 mg/kg | tranquillising properties [2]: good tranquillising properties | Sub-atmospheric pressure hypoxaemia (male mice; po): + | effect of inhibiting aggregation of thrombocytes (thrombocytes): inhibiting aggregation of thrombocytes | activity / effectiveness (vaso-active, metabolism-regulating, cerebral protection) [3]: highly active; also recorded: excellent activity | activity / effectiveness (vaso-active, metabolism-regulating, cerebral protection) ([3]; listed as 2-Oxo-1-pyrrolidinylacetic acid-2,6-dimethylanilide): particularly effective

CN(C)CCOC(=O)COc1ccc(Cl)cc1 [Meclofenoxate, meclofenoxate]
Sub-atmospheric pressure hypoxaemia (male mice; po): -

O=C(CN1CCCC1=O)Nc1ccccc1 [PA, 2-oxo-1-pyrrolidinylacetic acid anilide, reference compound]
Sub-atmospheric pressure hypoxaemia (male mice; po): - | activity / effectiveness (vaso-active, metabolism-regulating, cerebral protection) [3]: exhibits none of these effects

COc1ccc(Cc2nccc3cc(OC)c(OC)cc23)cc1OC [Papaverine, papaverine]
Sub-atmospheric pressure hypoxaemia (male mice; iv): -

NC(=O)CN1CCCC1=O [Piracetam, piracetam]
Sub-atmospheric pressure hypoxaemia (male mice; po): +

CC(C)NCC(O)COc1cccc2ccccc12 (stereo not drawn) [Propranol, propranolol]
Sub-atmospheric pressure hypoxaemia (male mice; po): -

Cc1ncc(CSSCc2cnc(C)c(O)c2CO)c(CO)c1O [Pyritinol, pyritinol]
Sub-atmospheric pressure hypoxaemia (male mice; po): -

CC[C@]12CCCN3CCc4c(n(c5ccccc45)[C@@](O)(C(=O)OC)C1)[C@@H]32 [Vincamine, vincamine]
Sub-atmospheric pressure hypoxaemia (male mice; po): +
